This passage reports Emax and EC50 results from patent US20250388574A1, “HETEROCYCLIC COMPOUNDS AS TRIGGERING RECEPTOR EXPRESSED ON MYELOID CELLS 2 AGONISTS AND METHODS OF USE” (AMGEN INC., priority 2020, published 2025).

A value given as a limit tells only on which side of the number the result lay.

For the assay, the target named is hTREM2 (Homo sapiens, UniProt Q9NZC2). As to the kind of experiment: Phospho-Syk AlphaScreen/AlphaLISA assay in TREM2 and DAP12 overexpressing HEK293 cells (Example A1). Type of assay: cell-based. Also noted: expressed in transfected cells. The following applies: HEK293 cells; for EC50: read-out: hTREM2 EC50. A digest of the protocol:
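Agonism read as Syk phosphorylation: compounds in 1% DMSO applied 45 min at room temperature to TREM2/DAP12-HEK293 cells after 20 h culture. Lysis buffer with phosphatase inhibitors and anti-phospho-Syk plus biotinylated anti-Syk antibodies, then AlphaLISA beads (680 nm excitation); percent of control computed from antibody/isotype wells, curves fitted sigmoidally.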
Background: Alpha assays give light when donor and acceptor beads are brought close together.

As usually defined, the EC50 is the concentration that produces a half-maximal response.

hTREM2, sequence (Q9NZC2 19-230): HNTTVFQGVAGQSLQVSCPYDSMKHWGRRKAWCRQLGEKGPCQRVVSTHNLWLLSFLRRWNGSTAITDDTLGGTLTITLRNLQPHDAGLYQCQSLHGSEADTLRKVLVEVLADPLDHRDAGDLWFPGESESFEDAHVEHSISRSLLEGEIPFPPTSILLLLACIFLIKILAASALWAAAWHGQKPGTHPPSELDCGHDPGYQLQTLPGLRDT
hTREM2, sequence (O43914 22-113 partner): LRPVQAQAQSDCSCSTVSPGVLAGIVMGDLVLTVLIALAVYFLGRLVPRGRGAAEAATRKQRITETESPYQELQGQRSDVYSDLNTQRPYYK

For the molecule `Cc1nc2cc(N3CCO[C@@H](c4cnn(C)c4)C3)nc(-c3ncc(Cl)cc3F)c2c(=O)n1C` [Example 216, (S)-5-(5-chloro-3-fluoropyridin-2-yl)-2,3-dimethyl-7-(2-(1-methyl-1H-pyrazol-4-yl)morpholino)pyrido[4,3-d]pyrimidin-4(3H)-one], the Emax entry is “++++ (Emax>300)” and the EC50 was 500 to 3000 nM.

As for `Cc1nc2cc(N3CCO[C@@H]([C@H]4CCO4)C3)nc(-c3ccc(Cl)cc3F)c2c(=O)n1C` (single isomer, unassigned) [Example 38], the Emax result was “+++ (Emax>200 and ≤300)”; the EC50 lay within 500 to 3000 nM.

As for `Cc1nc2cc(N3CC[C@H](c4ccccn4)C3)nc(-c3ccc(Cl)cc3F)c2c(=O)n1C` [Example 205, (S)-5-(4-chloro-2-fluorophenyl)-2,3-dimethyl-7-(3-(pyridin-2-yl)pyrrolidin-1-yl)pyrido[4,3-d]pyrimidin-4(3H)-one], the Emax result was “+++ (Emax>200 and ≤300)”; the EC50 fell in the range of 3000 to 100000 nM.

`Cc1nc2cc(N3CCC(c4nccn4C)C3)nc(-c3ccc(Cl)cc3F)c2c(=O)n1C` (stereo not drawn) [Example 122, 5-(4-chloro-2-fluorophenyl)-2,3-dimethyl-7-(3-(1-methyl-1H-imidazol-2-yl)-1-pyrrolidinyl)pyrido[4,3-d]pyrimidin-4(3H)-one]: the Emax entry is “+ (Emax>45 and ≤100)”; the EC50 was in the range of 3000 to 100000 nM.

In the case of `Cc1c([C@H]2CN(c3cc4nc(C)n(C)c(=O)c4c(-c4ccc(Cl)cc4F)n3)CCO2)cnn1C` [Example 262, (S)-5-(4-chloro-2-fluorophenyl)-7-(2-(1,5-dimethyl-1H-pyrazol-4-yl)morpholino)-2,3-dimethylpyrido[4,3-d]pyrimidin-4(3H)-one], the Emax result was “+++ (Emax>200 and ≤300)”; the EC50 is 500 to 3000 nM.

As for `Cc1nc2cc(N3CCC(c4cccnc4)C3)nc(-c3ccc(Cl)cc3F)c2c(=O)n1C` (stereo not drawn) [Example 121, 5-(4-chloro-2-fluorophenyl)-2,3-dimethyl-7-(3-(3-pyridinyl)-1-pyrrolidinyl)pyrido[4,3-d]pyrimidin-4(3H)-one], the Emax entry is listed as “++++ (Emax>300)” and the EC50 is 50 to 500 nM.

For the molecule `Cc1nc2cc(N3CCc4ncn(C)c4C3)nc(-c3ccc(Cl)cc3F)c2c(=O)n1C` [Example 222, 5-(4-chloro-2-fluorophenyl)-2,3-dimethyl-7-(3-methyl-3,4,6,7-tetrahydro-5H-imidazo[4,5-c]pyridin-5-yl)pyrido[4,3-d]pyrimidin-4(3H)-one], the Emax entry was “++ (Emax>100 and ≤200)”; the concentration giving a half-maximal response (EC50) fell in the range of 500 to 3000 nM.

With `Cc1nc2cc(N3CCO[C@@H](c4cnn(C)c4)C3)nc(-c3ccc(F)cc3)c2c(=O)n1C` [Example 229, (S)-5-(4-fluorophenyl)-2,3-dimethyl-7-(2-(1-methyl-1H-pyrazol-4-yl)morpholino)pyrido[4,3-d]pyrimidin-4(3H)-one], the Emax entry is “++++ (Emax>300)” and the EC50 was 500 to 3000 nM.

Take `CCCn1c(C)nc2cc(N3CCO[C@@H](c4ccccc4)C3)nc(-c3ccc(Cl)cc3F)c2c1=O` [Example 157, 5-(4-chloro-2-fluorophenyl)-2-methyl-7-((2S)-2-phenyl-4-morpholinyl)-3-propylpyrido[4,3-d]pyrimidin-4(3H)-one]: the Emax result was “++++ (Emax>300)” and the EC50 fell in the range of 500 to 3000 nM.

For `Cc1nc2cc(N3CCO[C@H]([C@H]4CCO4)C3)nc(-c3ccc(Cl)cc3F)c2c(=O)n1C` (single isomer, unassigned) [Example 41], the Emax result is “+++ (Emax>200 and ≤300)”; the half-maximal effective concentration (EC50) lay within 500 to 3000 nM.

On to `Cc1nc2cc(N3CC[C@@H](C(F)(F)F)C3)nc(-c3ccc(Cl)cc3F)c2c(=O)n1C` [Example 256, (R)-5-(4-chloro-2-fluorophenyl)-2,3-dimethyl-7-(3-(trifluoromethyl)pyrrolidin-1-yl)pyrido[4,3-d]pyrimidin-4(3H)-one], for which the Emax entry is “++++ (Emax>300)” and the EC50 lay within 3000 to 100000 nM.

For the molecule `CCCn1c(C)nc2cc(N3CCO[C@@H](c4cnn(C)c4)C3)nc(-c3ncc(Cl)cc3F)c2c1=O` [Example 153, 5-(5-chloro-3-fluoro-2-pyridinyl)-2-methyl-7-((2S)-2-(1-methyl-1H-pyrazol-4-yl)-4-morpholinyl)-3-propylpyrido[4,3-d]pyrimidin-4(3H)-one], the Emax result is given as “++++ (Emax>300)” and the EC50 was 50 to 500 nM.

With `Cc1nc2cc(N3CCO[C@@H](c4cnn(C)c4)C3)nc(-c3ccc(F)cc3F)c2c(=O)n1C` [Example 8, 5-(2,4-difluorophenyl)-2,3-dimethyl-7-((2S)-2-(1-methyl-1H-pyrazol-4-yl)-4-morpholinyl)-pyrido[4,3-d]pyrimidin-4(3H)-one], the Emax result is “++++ (Emax>300)” and the EC50 is 50 to 500 nM.

As for `Cc1nc2cc(N3CCO[C@@H](c4cn[nH]c4)C3)nc(-c3ccc(Cl)cc3F)c2c(=O)n1C` [Example 22, 5-(4-chloro-2-fluorophenyl)-2,3-dimethyl-7-((2S)-2-(1H-pyrazol-4-yl)-4-morpholinyl)pyrido[4,3-d]pyrimidin-4(3H)-one], the Emax result is given as “++++ (Emax>300)” and the EC50 is under 50 nM.

For `Cc1nc2cc(N3CCO[C@@H]([C@@H]4CCO4)C3)nc(-c3ccc(Cl)cc3F)c2c(=O)n1C` [Example 270, 5-(4-chloro-2-fluorophenyl)-2,3-dimethyl-7-((R)-2-((S)-oxetan-2-yl)morpholino)pyrido[4,3-d]pyrimidin-4(3H)-one], the Emax result was “+++ (Emax>200 and ≤300)”; the EC50 was 500 to 3000 nM.

In the case of `Cc1nc2cc(N3CCO[C@@H](c4cnn(C(C)C)c4)C3)nc(-c3ccc(Cl)cc3F)c2c(=O)n1C` [Example 123, 5-(4-chloro-2-fluorophenyl)-2,3-dimethyl-7-((2S)-2-(1-(2-propanyl)-1H-pyrazol-4-yl)-4-morpholinyl)pyrido[4,3-d]pyrimidin-4(3H)-one], the Emax entry is “++++ (Emax>300)” and the EC50 is under 50 nM.

Take `Cc1nc2cc(N3CCCC(c4cnco4)C3)nc(-c3ccc(Cl)cc3F)c2c(=O)n1C` (stereo not drawn) [Example 105, 5-(4-chloro-2-fluorophenyl)-2,3-dimethyl-7-(3-(1,3-oxazol-5-yl)-1-piperidinyl)pyrido[4,3-d]pyrimidin-4(3H)-one]: the Emax entry was “++++ (Emax>300)” and the EC50 lay within 50 to 500 nM.

Regarding “ethyl (2R,4S)-4-(5-(4-chloro-2-fluorophenyl)-2,3-dimethyl-4-oxo-3,4-dihydropyrido[4,3-d]pyrimidin-7-yl)tetrahydro-2H-pyran-2-carboxylate and ethyl (2S,4R)-4-(5-(4-chloro-2-fluorophenyl)-2,3-dimethyl-4-oxo-3,4-dihydropyrido[4,3-d]pyrimidin-7-yl)tetrahydro-2H-pyran-2-carboxylate [Example 167]”, the Emax result was “++++ (Emax>300)” and the EC50 was 50 to 500 nM.

In the case of `Cc1nc2cc(N3CCC[C@H](c4cnn(C)c4)C3)nc(-c3ccc(Cl)cc3F)c2c(=O)n1C` (single isomer, unassigned) [Example 100], the Emax result was “+++ (Emax>200 and ≤300)”; the 50% effective concentration (EC50) was in the range of 50 to 500 nM.

For the molecule `Cc1ncc([C@@H]2CN(c3cc4nc(C)n(C)c(=O)c4c(-c4ccc(Cl)cc4F)n3)CCO2)cn1` (single isomer, unassigned) [Example 64], the Emax entry is “++++ (Emax>300)” and the EC50 was in the range of 50 to 500 nM.

For the molecule `Cc1nc2cc([C@H]3CCO[C@@H](c4cccnc4)C3)nc(-c3ccc(Cl)cc3F)c2c(=O)n1C` (single isomer, unassigned) [Example 177], the Emax result is listed as “++++ (Emax>300)” and the 50% effective concentration (EC50) was in the range of 50 to 500 nM.

Take `COCCn1cc([C@H]2CN(c3cc4nc(C)n(C)c(=O)c4c(-c4ccc(Cl)cc4F)n3)CCO2)cn1` [Example 127, 5-(4-chloro-2-fluorophenyl)-7-((2S)-2-(1-(2-methoxyethyl)-1H-pyrazol-4-yl)-4-morpholinyl)-2,3-dimethylpyrido[4,3-d]pyrimidin-4(3H)-one]: the Emax entry is “++++ (Emax>300)” and the concentration giving a half-maximal response (EC50) was in the range of 50 to 500 nM.

As to `Cc1cc([C@H]2C[C@@H](c3cc4nc(C)n(C)c(=O)c4c(-c4ccc(Cl)cc4F)n3)CCO2)ccn1` (single isomer, unassigned) [Example 169], the Emax entry was “+++ (Emax>200 and ≤300)”; the 50% effective concentration (EC50) is under 50 nM.

In the case of `Cc1nc2cc(N3CCO[C@@H](c4cnn(C)c4)C3)nc(-c3ccc(Cl)cc3)c2c(=O)n1C` [Example 5, 5-(4-chlorophenyl)-2,3-dimethyl-7-((2S)-2-(1-methyl-1H-pyrazol-4-yl)-4-morpholinyl)-pyrido[4,3-d]pyrimidin-4(3H)-one], the Emax result is “++++ (Emax>300)” and the 50% effective concentration (EC50) lay in the range of 50 to 500 nM.

In the case of `Cc1cnn([C@H]2CCCN(c3cc4nc(C)n(C)c(=O)c4c(-c4ccc(Cl)cc4F)n3)C2)c1` [Example 231, (S)-5-(4-chloro-2-fluorophenyl)-2,3-dimethyl-7-(3-(4-methyl-1H-pyrazol-1-yl)piperidin-1-yl)pyrido[4,3-d]pyrimidin-4(3H)-one], the Emax entry is “+++ (Emax>200 and ≤300)”; the EC50 lay in the range of 500 to 3000 nM.

`Cc1nc2cc(N3CC[C@H](n4cccn4)C3)nc(-c3ccc(Cl)cc3F)c2c(=O)n1C` [Example 203, (S)-7-(3-(1H-pyrazol-1-yl)pyrrolidin-1-yl)-5-(4-chloro-2-fluorophenyl)-2,3-dimethylpyrido[4,3-d]pyrimidin-4(3H)-one]: the Emax result was “+ (Emax>45 and ≤100)”; the EC50 is 3000 to 100000 nM.

As to “5-(4-chloro-2-fluorophenyl)-2,3-dimethyl-7-((2R,4R)-2-(1-methyl-1H-pyrazol-4-yl)tetrahydro-2H-pyran-4-yl)pyrido[4,3-d]pyrimidin-4(3H)-one and 5-(4-chloro-2-fluorophenyl)-2,3-dimethyl-7-((2S,4S)-2-(1-methyl-1H-pyrazol-4-yl)tetrahydro-2H-pyran-4-yl)pyrido[4,3-d]pyrimidin-4(3H)-one [Example 161]”, the Emax result was “+++ (Emax>200 and ≤300)”; the EC50 was 500 to 3000 nM.
